Values quoted from earlier work in patent US20260014261A1, “TARGETED PROTEIN MODIFICATION” (Weatherwax Biotechnologies Corporation, priority 2022, published 2026).

Molecular target: p53 (Homo sapiens, UniProt P04637)
Conditions: read-out: binding affinity (Kd) for p53

Sequence of p53 (P04637 whole entry): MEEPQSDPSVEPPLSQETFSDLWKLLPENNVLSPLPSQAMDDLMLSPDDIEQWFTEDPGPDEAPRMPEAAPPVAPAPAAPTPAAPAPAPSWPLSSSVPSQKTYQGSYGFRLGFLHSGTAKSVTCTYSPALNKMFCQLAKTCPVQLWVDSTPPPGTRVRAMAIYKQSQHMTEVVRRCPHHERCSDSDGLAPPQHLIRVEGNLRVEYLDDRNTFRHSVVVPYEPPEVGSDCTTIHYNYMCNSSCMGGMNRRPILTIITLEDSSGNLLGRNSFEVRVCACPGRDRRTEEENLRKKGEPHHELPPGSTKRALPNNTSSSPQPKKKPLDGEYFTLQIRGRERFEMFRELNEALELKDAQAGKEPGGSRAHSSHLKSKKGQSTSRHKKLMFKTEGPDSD

Kd: ~1000 nM
SMILES: CN(C)CCCNc1nc(CN2CCN(C(c3ccc(Cl)cc3)c3ccc(Cl)cc3)CC2)nc2ccccc12 [SCH 529074]
